Assay: xn = mol fraction of the nth substance listed
Details: 101 kPa, Liquid

CN1CCCC1=O [N-methylpyrrolidone] + c1ccccc1
Details | mass density [kg/m3]
293.15 K, x2 = 0 | 1032.66
293.15 K, x2 = 0.0434 | 1027.48
293.15 K, x2 = 0.1023 | 1020.3
293.15 K, x2 = 0.1625 | 1012.78
293.15 K, x2 = 0.2237 | 1004.93
293.15 K, x2 = 0.2834 | 997.06
293.15 K, x2 = 0.3457 | 988.6
293.15 K, x2 = 0.4015 | 980.8
293.15 K, x2 = 0.4865 | 968.47
293.15 K, x2 = 0.5421 | 960.08
293.15 K, x2 = 0.6154 | 948.61
293.15 K, x2 = 0.6854 | 937.17
293.15 K, x2 = 0.7549 | 925.31
293.15 K, x2 = 0.8254 | 912.73
293.15 K, x2 = 0.9002 | 898.74
293.15 K, x2 = 0.9772 | 883.6
303.15 K, x2 = 0 | 1023.42
303.15 K, x2 = 0.0444 | 1018.04
303.15 K, x2 = 0.1165 | 1009.11
303.15 K, x2 = 0.1854 | 1000.32
303.15 K, x2 = 0.2539 | 991.32
303.15 K, x2 = 0.3296 | 981.02
303.15 K, x2 = 0.3965 | 971.6
303.15 K, x2 = 0.4653 | 961.58
303.15 K, x2 = 0.5362 | 950.85
303.15 K, x2 = 0.6033 | 940.29
303.15 K, x2 = 0.6798 | 927.73
303.15 K, x2 = 0.7451 | 916.54
303.15 K, x2 = 0.8125 | 904.52
303.15 K, x2 = 0.8847 | 891.05
303.15 K, x2 = 0.9245 | 883.36
303.15 K, x2 = 0.9799 | 872.31
313.15 K, x2 = 0 | 1014.27
313.15 K, x2 = 0.0454 | 1008.7
313.15 K, x2 = 0.1054 | 1001.17
313.15 K, x2 = 0.1765 | 992
313.15 K, x2 = 0.2365 | 984.05
313.15 K, x2 = 0.2965 | 975.88
313.15 K, x2 = 0.3654 | 966.2
313.15 K, x2 = 0.4368 | 955.82
313.15 K, x2 = 0.5012 | 946.12
313.15 K, x2 = 0.5687 | 935.58
313.15 K, x2 = 0.6358 | 924.71
313.15 K, x2 = 0.6954 | 914.69
313.15 K, x2 = 0.7658 | 902.39
313.15 K, x2 = 0.8326 | 890.21
313.15 K, x2 = 0.9036 | 876.72
313.15 K, x2 = 0.9684 | 863.87
323.15 K, x2 = 0 | 1005.62
323.15 K, x2 = 0.0521 | 999.09
323.15 K, x2 = 0.1245 | 989.78
323.15 K, x2 = 0.1987 | 979.96
323.15 K, x2 = 0.2541 | 972.41
323.15 K, x2 = 0.3214 | 962.98
323.15 K, x2 = 0.3854 | 953.74
323.15 K, x2 = 0.4215 | 948.4
323.15 K, x2 = 0.4854 | 938.69
323.15 K, x2 = 0.5411 | 929.98
323.15 K, x2 = 0.6124 | 918.42
323.15 K, x2 = 0.6854 | 906.11
323.15 K, x2 = 0.7214 | 899.84
323.15 K, x2 = 0.7984 | 885.99
323.15 K, x2 = 0.8598 | 874.48
323.15 K, x2 = 0.9249 | 861.81
333.15 K, x2 = 0 | 996.28
333.15 K, x2 = 0.0451 | 990.55
333.15 K, x2 = 0.1025 | 983.11
333.15 K, x2 = 0.1632 | 975.06
333.15 K, x2 = 0.2302 | 965.93
333.15 K, x2 = 0.2987 | 956.32
333.15 K, x2 = 0.3512 | 948.74
333.15 K, x2 = 0.4215 | 938.29
333.15 K, x2 = 0.4865 | 928.31
333.15 K, x2 = 0.5521 | 917.9
333.15 K, x2 = 0.6213 | 906.51
333.15 K, x2 = 0.6895 | 894.85
333.15 K, x2 = 0.7451 | 885.02
333.15 K, x2 = 0.8145 | 872.3
333.15 K, x2 = 0.8865 | 858.55
333.15 K, x2 = 0.9654 | 842.8
343.15 K, x2 = 0 | 987.39
343.15 K, x2 = 0.0414 | 982.03
343.15 K, x2 = 0.1154 | 972.25
343.15 K, x2 = 0.1874 | 962.43
343.15 K, x2 = 0.2564 | 952.76
343.15 K, x2 = 0.3248 | 942.88
343.15 K, x2 = 0.3965 | 932.18
343.15 K, x2 = 0.4685 | 921.08
343.15 K, x2 = 0.5384 | 909.92
343.15 K, x2 = 0.5968 | 900.27
343.15 K, x2 = 0.6622 | 889.13
343.15 K, x2 = 0.7321 | 876.77
343.15 K, x2 = 0.7954 | 865.17
343.15 K, x2 = 0.8541 | 854.04
343.15 K, x2 = 0.9123 | 842.63
343.15 K, x2 = 0.9799 | 828.9

CCc1ccccc1 [ethylbenzene] + CN1CCCC1=O
Details | mass density [kg/m3]
293.15 K, x1 = 0.0854 | 1016.73
293.15 K, x1 = 0.1254 | 1009.4
293.15 K, x1 = 0.1847 | 998.68
293.15 K, x1 = 0.2475 | 987.56
293.15 K, x1 = 0.3021 | 978.07
293.15 K, x1 = 0.3654 | 967.23
293.15 K, x1 = 0.4251 | 957.16
293.15 K, x1 = 0.4985 | 944.94
293.15 K, x1 = 0.5471 | 936.92
293.15 K, x1 = 0.6012 | 928.06
293.15 K, x1 = 0.6621 | 918.17
293.15 K, x1 = 0.7214 | 908.66
293.15 K, x1 = 0.7954 | 897.01
293.15 K, x1 = 0.8451 | 889.37
293.15 K, x1 = 0.9214 | 878.1
293.15 K, x1 = 1 | 867.28
303.15 K, x1 = 0.0458 | 1014.88
303.15 K, x1 = 0.1012 | 1004.66
303.15 K, x1 = 0.1685 | 992.46
303.15 K, x1 = 0.2314 | 981.29
303.15 K, x1 = 0.2958 | 970.09
303.15 K, x1 = 0.3541 | 960.11
303.15 K, x1 = 0.4217 | 948.71
303.15 K, x1 = 0.4851 | 938.16
303.15 K, x1 = 0.5471 | 927.94
303.15 K, x1 = 0.6012 | 919.09
303.15 K, x1 = 0.6874 | 905.16
303.15 K, x1 = 0.7451 | 895.97
303.15 K, x1 = 0.8124 | 885.46
303.15 K, x1 = 0.8954 | 872.96
303.15 K, x1 = 0.9654 | 863.01
303.15 K, x1 = 1 | 858.36
313.15 K, x1 = 0.0547 | 1004.11
313.15 K, x1 = 0.1245 | 991.32
313.15 K, x1 = 0.1874 | 980.01
313.15 K, x1 = 0.2451 | 969.83
313.15 K, x1 = 0.3012 | 960.1
313.15 K, x1 = 0.3621 | 949.71
313.15 K, x1 = 0.4321 | 937.95
313.15 K, x1 = 0.4985 | 926.93
313.15 K, x1 = 0.5621 | 916.47
313.15 K, x1 = 0.6251 | 906.2
313.15 K, x1 = 0.6958 | 894.8
313.15 K, x1 = 0.7589 | 884.77
313.15 K, x1 = 0.8245 | 874.57
313.15 K, x1 = 0.9014 | 863.06
313.15 K, x1 = 0.9789 | 852.18
313.15 K, x1 = 1 | 849.38
323.15 K, x1 = 0.0654 | 993.44
323.15 K, x1 = 0.1123 | 984.81
323.15 K, x1 = 0.1785 | 972.82
323.15 K, x1 = 0.2356 | 962.68
323.15 K, x1 = 0.2959 | 952.18
323.15 K, x1 = 0.3575 | 941.62
323.15 K, x1 = 0.4154 | 931.85
323.15 K, x1 = 0.4825 | 920.66
323.15 K, x1 = 0.5415 | 910.92
323.15 K, x1 = 0.606 | 900.36
323.15 K, x1 = 0.6784 | 888.62
323.15 K, x1 = 0.7451 | 877.94
323.15 K, x1 = 0.8214 | 866
323.15 K, x1 = 0.8954 | 854.87
323.15 K, x1 = 0.9548 | 846.41
323.15 K, x1 = 1 | 840.35
333.15 K, x1 = 0.0687 | 983.52
333.15 K, x1 = 0.1254 | 973.12
333.15 K, x1 = 0.1874 | 961.93
333.15 K, x1 = 0.2454 | 951.67
333.15 K, x1 = 0.3021 | 941.83
333.15 K, x1 = 0.3654 | 931.02
333.15 K, x1 = 0.4251 | 920.99
333.15 K, x1 = 0.4784 | 912.12
333.15 K, x1 = 0.5241 | 904.57
333.15 K, x1 = 0.5864 | 894.36
333.15 K, x1 = 0.6478 | 884.37
333.15 K, x1 = 0.7012 | 875.76
333.15 K, x1 = 0.7898 | 861.71
333.15 K, x1 = 0.8457 | 853.12
333.15 K, x1 = 0.9254 | 841.39
333.15 K, x1 = 1 | 831.25
343.15 K, x1 = 0.0784 | 972.86
343.15 K, x1 = 0.1354 | 962.43
343.15 K, x1 = 0.1985 | 951.09
343.15 K, x1 = 0.2415 | 943.48
343.15 K, x1 = 0.3021 | 932.94
343.15 K, x1 = 0.3654 | 922.12
343.15 K, x1 = 0.4251 | 912.06
343.15 K, x1 = 0.4984 | 899.86
343.15 K, x1 = 0.5641 | 889.03
343.15 K, x1 = 0.6214 | 879.66
343.15 K, x1 = 0.6985 | 867.19
343.15 K, x1 = 0.7515 | 858.72
343.15 K, x1 = 0.8125 | 849.17
343.15 K, x1 = 0.8895 | 837.51
343.15 K, x1 = 0.9784 | 824.96
343.15 K, x1 = 1 | 822.11
353.15 K, x1 = 0.0874 | 962.38
353.15 K, x1 = 0.1421 | 952.35
353.15 K, x1 = 0.2032 | 941.34
353.15 K, x1 = 0.2874 | 926.52
353.15 K, x1 = 0.3451 | 916.58
353.15 K, x1 = 0.4021 | 906.9
353.15 K, x1 = 0.487 | 892.69
353.15 K, x1 = 0.5474 | 882.68
353.15 K, x1 = 0.612 | 872.06
353.15 K, x1 = 0.6874 | 859.79
353.15 K, x1 = 0.7458 | 850.42
353.15 K, x1 = 0.8211 | 838.6
353.15 K, x1 = 0.8954 | 827.4
353.15 K, x1 = 0.9445 | 820.37
353.15 K, x1 = 0.98 | 815.52
353.15 K, x1 = 1 | 812.9

Source: the NIST ThermoML archive (doi:10.1016/j.jct.2006.05.006)
